In patent US20110281951A1, “Compositions and methods for treating amyloidosis” (priority 1999, published 2011):

Columns and labels:
Assay type in all cases: biochemical
[1] = target: T1, IAPP (Homo sapiens, UniProt P10997); test: Circular dichroism analysis of IAPP-associated fibril formation (Example 7); parameters: add 10 μL of 10 mg/mL IAPP stock solution (final 100 ng peptide); conditions: for Conformation at 24 h / CD at 24 h / Conformation at 48 h / CD at 48 h / Conformation at T0: molar ratio 1:5 peptide:compound; for CD at 24 h / CD at 48 h: more positive = less β-sheet
T1 sequence (P10997 34-70 limits assumed): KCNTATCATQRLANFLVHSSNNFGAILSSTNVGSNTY
Protocol: Circular dichroism analysis was conducted to confirm the activity of certain therapeutic compounds in preventing or inhibiting IAPP-associated fibril formation in accordance with the present disclosure by determining the presence or absence of […] conformation.
Instrument: JASCO J-715 Spectropolarimeter
Cell cuvette: Hellma quartz (QS) with 1.0 mm pathlength
Wavelength interval: 250 nm-190 nm
Scanning speed: 20 nm/min
The assay, a co-incubation procedure, examines the ability of a compound or substance to inhibit the assembly of amyloid fibrils, e.g., to test for the presence of the amyloidotic β-sheet conformation in the presence of soluble IAPP. Samples are run in the presence and absence (i.e., water alone) of buffering agent, which is done to determine if competitive effects are seen with the ionic buffer (usually phosphate).
Add components used at a molar ratio of 1:10 [ peptide:compound]; add 10 μL of 10 mg/mL IAPP stock solution (final […] peptide) to the aqueous solution containing compound to a final volume of 400 μL. The pH of the final assay solution is measured to ensure there is no fluctuation and the spectrum is accumulated using the parameters as shown above.
Add desired amount of compound to achieve a 1:10 molar ratio in 10 mM phosphate buffer, pH 7. Add 10 μL of 10 mg/mL IAPP stock solution (final peptide 100 μg) to the phosphate buffered solution containing the compound and bring to a final volume of 400 μL. The pH of the final assay solution is measured to ensure there is no fluctuation and the spectrum is accumulated using the parameters as shown above.
In both assays, a control sample is run with each test group. This control contains peptide only in water or buffer at a similar final volume of 400 μl. Spectra for the control are collected initially (first run) and at the end of the test (final run) to ensure that the peptide has not undergone extensive aggregation during the course of the assay. Spectra for the controls are used to compare with the measurements obtained with the treated samples.
Make fresh 1 mg/mL stock solution of IAPP in 10 mM phosphate buffer, pH 7. Add desired amount of compound to achieve a 1:10 molar ratio in 10 mM phosphate buffer, pH 7. Incubate for 3 days at room temperature. Make up to final volume of 400 μL with 10 mM phosphate buffer, pH 7. The pH of the final assay solution is measured to ensure there is no fluctuation and the spectrum is accumulated using the parameters as shown above.
A similar control is run for comparative purposes.
Plots of the spectra (control and treated) are individually assembled and the changes in ellipticity at 218 nm are examined. This minimum is directly correlated with the amount of β-sheet present in the sample. Changes in either a positive or negative direction are noted and a relative value (“active” or “not active”) assigned to the compound as a measure of activity. In a subsequent experiment with the compounds at a molar ratio of 1:5 [ peptide:compound], the degree of randomness was noted, an indication of the ability of the compounds to prevent amyloid aggregation. A more positive number indicates less β-sheet formation. The ability of a compound to prevent β-sheet formation for at least 24 h is important, as the non-aggregated amyloid fibrils will be excreted in the soluble form. In the control noted below, the decrease in CD (mdegs) may indicate that some of the peptide is aggregating under these conditions.

[2] = target: T1, IAPP; test: Thioflavine T spectroscopy, rate of amyloid fibril formation; conditions: ThT 62.5 μM; excitation 440 nm, emission 482 nm
Protocol: Detection of ThT fluorescence can be used as a sensitive assay for amyloid fibril formation under different conditions. This assay has been used in experiments to determine the effects of compounds of the invention on amyloid fibril formation.
Human IAPP was dissolved in 40% trifluoroethanol and freeze-dried into conveniently-sized aliquots. IAPP was prepared immediately before the measurements by dissolving in 40% 1,1,1,3,3,3-hexafluoro-2-propanol (HFIP) in water to maintain the peptide in alpha helical conformation and soluble. A stock solution of ThT (2.5 mM) was prepared, 7.9 mg in 10 mL Tris-HCl pH 7.0 and filtered (0.22 μm). Solutions were kept in the dark until use. Fluorescence was examined at 440 nm excitation (slit 5 nm), and emission at 482 nm (slit 10 nm) with stirring. […] of ThT stock (final concentration 62.5 μM) was added to peptide sample and made up to 1 mL in the cuvette. The sample was stirred for 5 min. before taking a reading. Measurements were made at an initial time point (5 min. from sample preparation), at intervals over the next 4-6 h and after overnight incubation at room temperature.

[3] = target: T2, Aβ(1-40) (Homo sapiens, UniProt P05067); test: Circular dichroism analysis, pre-incubation assay, β-sheet at 218 nm; conditions: CD 218 nm, 0.02M Tris pH 7.4
T2 construct: Prepare a fresh 40 μm solution of Aβ(1-40) in 0.02M Tris, pH 7.4; made in house; host or cells: chemical synthesis (FMOC), HPLC purified
Protocol: The assay is conducted as follows:
Instrument: JASCO J-715 Spectropolarimeter.
Cell/cuvette: Hellma quartz (QS) with 1.0 mm pathlength Room temperature. Wavelength interval: 250 nm-190 nm.
Band width: 1.0 nm Response time: 1 sec Scanning speed: 20 nm/min Number of accumulations/spectrum: 5
1. Prepare a fresh 40 μm solution of Aβ(1-40) in 0.02M Tris, pH 7.4.
2. Prepare a 1 mM solution of test compounds in 0.02M Tris, pH 7.4.
3. Combine equal volumes of the Aβ(1-40) and test compound solutions.
4. Incubate the mixtures for 19 h.
5. Take the CD spectrum using the parameters above.
6. Return the mixtures to the incubator and incubate to 43 h.
7. Take the CD spectrum using the parameters above. • Inhibition of Aβ40 assembly/aggregation is determined by comparing the amount of b-sheet structure) appearing at lambda=218 nm) obtained in control and in treated sample at each timepoint.

T2 sequence (P05067 672-711 limits assumed): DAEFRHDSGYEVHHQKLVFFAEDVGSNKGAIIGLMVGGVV

| Conformation at 24 h [1] | CD at 24 h [1] | Conformation at 48 h [1] | CD at 48 h [1] [mdegs] | Conformation at T0 [1] | Activity (change in ellipticity at 218 nm) ([1]; molar ratio 1:10 peptide:compound) | Structure (SMILES) | IAPP-associated fibril assembly (ThT fluorescence) [2] | relative inhibition compared to Aβ alone, incubation time 0 h [3] | relative inhibition compared to Aβ alone, incubation time 19 h [3] | relative inhibition compared to Aβ alone, incubation time 43 h [3] |
| --- | --- | --- | --- | --- | --- | --- | --- | --- | --- | --- |
| β | (−1.1) mdegs | β | −0.8 | Random | Active | O=S(=O)(O)NC1CCCCC1 [LVXI, cyclohexylsulfamic acid] | inhibit or prevent IAPP-associated fibril assembly | – | – | – |
| Random | – | β | −2.0 | Random | – | N[C@@H](COP(=O)(O)O)C(=O)O [LVXII, O-phospho-L-serine] | inhibit or prevent IAPP-associated fibril assembly | – | – | – |
| β | (−1.3) mdegs | β | −0.8 | Random | – | COc1ccc(S(=O)(=O)O)c2cccnc12 [LVXIV, 8-methoxyquinoline-5-sulfonic acid] | inhibit or prevent IAPP-associated fibril assembly | – | – | – |
| – | – | – | – | – | – | NCC(O)CS(=O)(=O)O (stereo not drawn) [LVXVI, 3-amino-2-hydroxy-1-propanesulfonic acid] | inhibit or prevent IAPP-associated fibril assembly | + (+: 0-25%) | +++ (+++: 50-75%) | ++ (++: 25-50%) |
| β | (−1.7) mdegs | β | −1.5 | Random | – | CN(C)CCCS(=O)(=O)O [LVXVII, 3-dimethylamino-1-propanesulfonic acid] | inhibit or prevent IAPP-associated fibril assembly | – | – | – |

| Structure (SMILES) | Conformation at 24 h [1] | CD at 24 h [1] | Conformation at 48 h [1] | CD at 48 h [1] [mdegs] | Conformation at T0 [1] | Activity (change in ellipticity at 218 nm) ([1]; molar ratio 1:10 peptide:compound) | IAPP-associated fibril assembly (ThT fluorescence) [2] | relative inhibition compared to Aβ alone, incubation time 0 h [3] | relative inhibition compared to Aβ alone, incubation time 19 h [3] | relative inhibition compared to Aβ alone, incubation time 43 h [3] |
| --- | --- | --- | --- | --- | --- | --- | --- | --- | --- | --- |
| O=S(=O)(O)CCCN1CC=C(c2ccccc2)CC1 [LVXV, 4-Phenyl-1-(3′-sulfopropyl)-1,2,3,6-tetrahydropyridine] | Random | – | β | −1.8 | Random | – | inhibit or prevent IAPP-associated fibril assembly | + (+: 0-25%) | ++++ (++++: 75-100%) | ++ (++: 25-50%) |
